Experimental findings from patent US20040156869A1, “2-substituted quinazolin-4-ylamine analogues” (Neurogen Corporation, priority 2002, published 2004) are described below.

Bounds are passed on as bounds.

In the first test the target is human capsaicin receptor (VR1) (Homo sapiens, UniProt Q8NER1). Description: Capsaicin receptor binding assay ([3H]RTX competition, VR1-transfected HEK293 membranes).
Chain of human capsaicin receptor (VR1) (Q8NER1 whole entry): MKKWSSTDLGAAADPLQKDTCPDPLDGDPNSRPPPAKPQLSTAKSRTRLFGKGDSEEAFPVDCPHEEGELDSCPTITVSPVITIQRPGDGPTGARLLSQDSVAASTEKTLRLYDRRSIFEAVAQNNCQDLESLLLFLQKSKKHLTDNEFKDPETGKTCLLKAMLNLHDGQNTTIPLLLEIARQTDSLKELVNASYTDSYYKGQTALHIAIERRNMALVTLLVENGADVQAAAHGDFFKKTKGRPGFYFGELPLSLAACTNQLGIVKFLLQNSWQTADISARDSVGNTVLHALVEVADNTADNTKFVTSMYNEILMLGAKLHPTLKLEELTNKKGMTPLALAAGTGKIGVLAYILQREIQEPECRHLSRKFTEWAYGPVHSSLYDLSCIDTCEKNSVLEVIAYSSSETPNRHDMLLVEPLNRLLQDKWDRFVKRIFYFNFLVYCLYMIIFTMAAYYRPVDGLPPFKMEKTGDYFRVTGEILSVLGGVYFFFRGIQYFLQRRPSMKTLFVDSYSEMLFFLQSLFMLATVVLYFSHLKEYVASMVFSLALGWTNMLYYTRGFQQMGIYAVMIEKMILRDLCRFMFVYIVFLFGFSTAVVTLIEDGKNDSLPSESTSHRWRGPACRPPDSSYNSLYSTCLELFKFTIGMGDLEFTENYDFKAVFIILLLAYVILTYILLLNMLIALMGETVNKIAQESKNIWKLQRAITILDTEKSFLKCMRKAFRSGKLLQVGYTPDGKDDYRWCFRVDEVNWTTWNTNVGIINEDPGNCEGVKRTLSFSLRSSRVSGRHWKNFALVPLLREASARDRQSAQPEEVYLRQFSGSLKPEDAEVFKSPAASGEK
Conditions: not given
`FC(F)(F)c1ccc(Nc2nc(CNCc3ccccc3)nc3cc(-c4ncccc4C(F)(F)F)ccc23)nc1` [Compound 560, [2-(Benzylamino-methyl)-7-(3-trifluoromethyl-pyridin-2-yl)-quinazolin-4-yl]-(5-trifluoromethyl-pyridin-2-yl)-amine] came in with a Ki of less than 1000 nM. Molecule `CC1CN(CCc2nc(Nc3ccc(C(F)(F)F)cc3)c3ccc(-c4ncccc4C(F)(F)F)cc3n2)CC(C)O1` (centres unmarked) [Compound 561, [2-[2-(2,6-Dimethyl-morpholin-4-yl)-ethyl]-7-(3-trifluoromethyl-pyridin-2-yl)-quinazolin-4-yl]-(4-trifluoromethyl-phenyl)-amine] returned a Ki of less than 1000 nM. `O=CN1CCN(CCc2nc(Nc3ccc(C(F)(F)F)cc3)c3ccc(-c4ncccc4C(F)(F)F)cc3n2)CC1` [Compound 562, 4-{2-[4-(4-Trifluoromethyl-phenylamino)-7-(3-trifluoromethyl-pyridin-2-yl)-quinazolin-2-yl]-ethyl}-piperazine-1-carbaldehyde] displayed a Ki of less than 1000 nM. For the molecule `OCCC1CCN(CCCc2nc(Nc3ccc(C(F)(F)F)cc3)c3ccc(-c4ncccc4C(F)(F)F)cc3n2)CC1` [Compound 568, 2-(1-{3-[4-(4-Trifluoromethyl-phenylamino)-7-(3-trifluoromethyl-pyridin-2-yl)-quinazolin-2-yl]-propyl}-piperidin-4-yl)-ethanol], the Ki is less than 1000 nM. On to `OCC1CCN(CCCc2nc(Nc3ccc(C(F)(F)F)cc3)c3ccc(-c4ncccc4C(F)(F)F)cc3n2)CC1` [Compound 569, (1-{3-[4-(4-Trifluoromethyl-phenylamino)-7-(3-trifluoromethyl-pyridin-2-yl)-quinazolin-2-yl]-propyl}-piperidin-4-yl)-methanol], for which the Ki is less than 1000 nM.

With `OC1CCN(CCCc2nc(Nc3ccc(C(F)(F)F)cc3)c3ccc(-c4ncccc4C(F)(F)F)cc3n2)CC1` [Compound 570], the Ki is less than 1000 nM. Still for that read-out and setting: the same measure for `OC1CCCN(CCCc2nc(Nc3ccc(C(F)(F)F)cc3)c3ccc(-c4ncccc4C(F)(F)F)cc3n2)C1` (centres unmarked) [Compound 571, 1-{3-[4-(4-Trifluoromethyl-phenylamino)-7-(3-trifluoromethyl-pyridin-2-yl)-quinazolin-2-yl]-propyl}piperidin-3-ol]: less than 1000 nM.

In turn, `CC1CCCN(CCCc2nc(Nc3ccc(C(F)(F)F)cc3)c3ccc(-c4ncccc4C(F)(F)F)cc3n2)C1` (centres unmarked) [Compound 572, [2-[3-(3-Methyl-piperidin-1-yl)-propyl]-7-(3-trifluoromethyl-pyridin-2-yl)-quinazolin-4-yl]-(4-trifluoromethyl-phenyl)-amine] came in with a Ki of less than 1000 nM. Consider `CN1CCN(CCCc2nc(Nc3ccc(C(F)(F)F)cc3)c3ccc(-c4ncccc4C(F)(F)F)cc3n2)CC1` [Compound 573, [2-[3-(4-Methyl-piperazin-1-yl)-propyl]-7-(3-trifluoromethyl-pyridin-2-yl)-quinazolin-4-yl]-(4-trifluoromethyl-phenyl)-amine], for which the Ki was less than 1000 nM. As for `FC(F)(F)c1ccc(Nc2nc(CNCc3ccccc3)nc3cc(-c4ncccc4C(F)(F)F)ccc23)cn1` [Compound 574, [2-(Benzylamino-methyl)-7-(3-trifluoromethyl-pyridin-2-yl)-quinazolin-4-yl]-(6-trifluoromethyl-pyridin-3-yl)-amine], the Ki was less than 1000 nM. `CN(Cc1ccccc1)Cc1nc(Nc2ccc(C(F)(F)F)nc2)c2ccc(-c3ncccc3C(F)(F)F)cc2n1` [Compound 575, [2-[(Benzyl-methyl-amino)-methyl]-7-(3-trifluoromethyl-pyridin-2-yl)-quinazolin-4-yl]-(6-trifluoromethyl-pyridin-3-yl)-amine] registered a Ki of less than 1000 nM. Regarding `COc1ccccc1CNCc1nc(Nc2ccc(C(F)(F)F)nc2)c2ccc(-c3ncccc3C(F)(F)F)cc2n1` [Compound 576, [2-[(2-Methoxy-benzylamino)-methyl]-7-(3-trifluoromethyl-pyridin-2-yl)-quinazolin-4-yl]-(6-trifluoromethyl-pyridin-3-yl)-amine], the Ki is less than 1000 nM. The molecule `COc1ccc(CNCc2nc(Nc3ccc(C(F)(F)F)nc3)c3ccc(-c4ncccc4C(F)(F)F)cc3n2)cc1` [Compound 577, [2-[(4-Methoxy-benzylamino)-methyl]-7-(3-trifluoromethyl-pyridin-2-yl)-quinazolin-4-yl]-(6-trifluoromethyl-pyridin-3-yl)-amine] yielded a Ki of less than 1000 nM. On to `FC(F)(F)c1ccc(Nc2nc(CNCc3ccccn3)nc3cc(-c4ncccc4C(F)(F)F)ccc23)cn1` [Compound 578, [2-{[(Pyridin-2-ylmethyl)-amino]-methyl}-7-(3-trifluoromethyl-pyridin-2-yl)-quinazolin-4-yl]-(6-trifluoromethyl-pyridin-3-yl)-amine], for which the Ki is less than 1000 nM.

With `FC(F)(F)c1ccc(Nc2nc(Cn3ccnc3)nc3cc(-c4ncccc4C(F)(F)F)ccc23)cn1` [Compound 579, [2-Imidazol-1-ylmethyl-7-(3-trifluoromethyl-pyridin-2-yl)-quinazolin-4-yl]-(6-trifluoromethyl-pyridin-3-yl)-amine], the Ki is less than 1000 nM. Take `O=S(=O)(c1ccc(Nc2nc(CN3CCOCC3)nc3cc(-c4ncccc4C(F)(F)F)ccc23)cc1)C(F)(F)F` [Compound 580, [2-Morpholin-4-ylmethyl-7-(3-trifluoromethyl-pyridin-2-yl)-quinazolin-4-yl]-(4-trifluoromethanesulfonyl-phenyl)-amine]: the Ki is less than 1000 nM. In the case of `CC1CN(Cc2nc(Nc3ccc(S(=O)(=O)C(F)(F)F)cc3)c3ccc(-c4ncccc4C(F)(F)F)cc3n2)CC(C)O1` (centres unmarked) [Compound 581, [2-(2,6-Dimethyl-morpholin-4-ylmethyl)-7-(3-trifluoromethyl-pyridin-2-yl)-quinazolin-4-yl]-(4-trifluoromethanesulfonyl-phenyl)-amine], the Ki was less than 1000 nM. Turning to `C[C@@H]1CN(Cc2nc(Nc3ccc(S(=O)(=O)C(F)(F)F)cc3)c3ccc(-c4ncccc4C(F)(F)F)cc3n2)C[C@H](C)O1` [Compound 582, [2-(2,6-Dimethyl-morpholin-4-ylmethyl)-7-(3-trifluoromethyl-pyridin-2-yl)-quinazolin-4-yl]-(4-trifluoromethanesulfonyl-phenyl)-amine (cis)], the Ki was less than 1000 nM.

Molecule `CCCOC(=O)N1CCN(CCc2nc(Nc3ccc(C(F)(F)F)cc3)c3ccc(-c4ncccc4C(F)(F)F)cc3n2)CC1` [Compound 585, 4-{2-[4-(4-Trifluoromethyl-phenylamino)-7-(3-trifluoromethyl-pyridin-2-yl)-quinazolin-2-yl]-ethyl}-piperazine-1-carboxylic acid propyl ester] registered a Ki of less than 1000 nM.

`OC1CCN(CCc2nc(Nc3ccc(C(F)(F)F)cc3)c3ccc(-c4ncccc4C(F)(F)F)cc3n2)CC1` [Compound 586, [2-(4-Hydroxy-piperidin-1-ylethyl)-7-(3-trifluoromethyl-pyridin-2-yl)-quinazolin-4-yl]-(4-trifluoromethyl-phenyl)-amine] returned a Ki of less than 1000 nM. Molecule `CC1CCCN(CCc2nc(Nc3ccc(C(F)(F)F)cc3)c3ccc(-c4ncccc4C(F)(F)F)cc3n2)C1` (centres unmarked) [Compound 587, [2-(3-Methyl-piperidin-1-ylethyl)-7-(3-trifluoromethyl-pyridin-2-yl)-quinazolin-4-yl]-(4-trifluoromethyl-phenyl)-amine] yielded a Ki of less than 1000 nM. Regarding `OC1CCCN(CCc2nc(Nc3ccc(C(F)(F)F)cc3)c3ccc(-c4ncccc4C(F)(F)F)cc3n2)C1` (centres unmarked) [Compound 588, [2-(3-Hydroxy-piperidin-1-ylethyl)-7-(3-trifluoromethyl-pyridin-2-yl)-quinazolin-4-yl]-(4-trifluoromethyl-phenyl)-amine], the Ki was less than 1000 nM.

`NC(=O)C1CCN(CCc2nc(Nc3ccc(C(F)(F)F)cc3)c3ccc(-c4ncccc4C(F)(F)F)cc3n2)CC1` [Compound 589, 1-{2-[4-(4-Trifluoromethyl-phenylamino)-7-(3-trifluoromethyl-pyridin-2-yl)-quinazolin-2-yl]-ethyl}-piperidine-4-carboxylic acid amide]: the Ki was less than 1000 nM. `CCOC(=O)C1CCCN(CCc2nc(Nc3ccc(C(F)(F)F)cc3)c3ccc(-c4ncccc4C(F)(F)F)cc3n2)C1` (centres unmarked) [Compound 590, 1-{2-[4-(4-Trifluoromethyl-phenylamino)-7-(3-trifluoromethyl-pyridin-2-yl)-quinazolin-2-yl]-ethyl}-piperidine-3-carboxylic acid ethyl ester] came in with a Ki of less than 1000 nM.

For `CCOC(=O)C1CCN(CCc2nc(Nc3ccc(C(F)(F)F)cc3)c3ccc(-c4ncccc4C(F)(F)F)cc3n2)CC1` [Compound 592, 1-{2-[4-(4-Trifluoromethyl-phenylamino)-7-(3-trifluoromethyl-pyridin-2-yl)-quinazolin-2-yl]-ethyl}-piperidine-4-carboxylic acid ethyl ester], the Ki was less than 1000 nM. `C[C@@H]1CN(Cc2nc(Nc3ccc(S(=O)(=O)C(F)(F)F)cc3)c3ncc(-c4ncccc4C(F)(F)F)cc3n2)C[C@H](C)O1` [Compound 593, [2-(2,6-Dimethyl-morpholin-4-ylmethyl)-7-(3-trifluoromethyl-pyridin-2-yl)-pyrido[3,2-d]pyrimidin-4-yl]-(4-trifluoromethanesulfonyl-phenyl)-amine (cis)] registered a Ki of less than 1000 nM.

The same test, now with this note: Table III; capsaicin receptor binding.
Molecule `CCCN(Cc1nc(Nc2ccc(C(F)(F)F)nc2)c2ccc(-c3ncccc3C(F)(F)F)cc2n1)CC1CC1` [Compound 558, [2-[(Cyclopropylmethyl-propyl-amino)-methyl]-7-(3-trifluoromethyl-pyridin-2-yl)-quinazolin-4-yl]-(6-trifluoromethyl-pyridin-3-yl)-amine] had a Ki of less than 1000 nM. In the case of `CC1CC(C)CN(Cc2nc(Nc3ccc(C(F)(F)F)nc3)c3ccc(-c4ncccc4C(F)(F)F)cc3n2)C1` (centres unmarked) [Compound 559, [2-(3,5-Dimethyl-piperidin-1-ylmethyl)-7-(3-trifluoromethyl-pyridin-2-yl)-quinazolin-4-yl]-(6-trifluoromethyl-pyridin-3-yl)-amine], the Ki was less than 1000 nM. In turn, `CC1CN(Cc2nc(Nc3ccc(C(C)(C)C)cc3)c3ncc(-c4ncccc4C(F)(F)F)cc3n2)CC(C)O1` (stereo not drawn) [Compound 583, (4-tert-Butyl-phenyl)-[2-(2,6-dimethyl-morpholin-4-ylmethyl)-7-(3-trifluoromethyl-pyridin-2-yl)-pyrido[3,2-d]pyrimidin-4-yl]-amine (cis)] showed a Ki of less than 1000 nM.
